Reference: PMC10311525, “Restricting Promiscuity of Plant Flavonoid 3′-Hydroxylase and 4′-O-Methyltransferase Improves the Biosynthesis of (2S)-Hesperetin in E. coli” (Journal of Agricultural and Food Chemistry, 2023)

What was measured:
Assay in all cases: whole-cell conversion, HPLC
Type in all cases: cell-based
[1] = target: T1, MpOMT (Mentha x piperita, UniProt Q6VMV8, S142A); details: 100 mg/L fed, 12 h, 23 °C; product (2S)-hesperetin
T1 construct: gene OMT4

[2] = target: T2, MpOMT (Mentha x piperita, UniProt Q6VMV8, F133A); details: 100 mg/L fed, 12 h, 23 °C; product (2S)-hesperetin
T2 construct: gene OMT4

[3] = target: T3, trThF3′H with CPR (Tricyrtis hirta, UniProt B9A9Y6); details: 100 mg/L fed, 12 h, 23 °C; product (2S)-eriodictyol; full-length CPR co-expressed
T3 construct: gene F3'H; 24-aa N-terminally truncated F3'H co-expressed with full-length Arabidopsis thaliana CPR from pETDuet-1 (pGH10) in E. coli BL21(DE3); whole-cell conversion; with NADPH--cytochrome P450 reductase 2 (Arabidopsis thaliana)
T3 sequence (B9A9Y6 25-505): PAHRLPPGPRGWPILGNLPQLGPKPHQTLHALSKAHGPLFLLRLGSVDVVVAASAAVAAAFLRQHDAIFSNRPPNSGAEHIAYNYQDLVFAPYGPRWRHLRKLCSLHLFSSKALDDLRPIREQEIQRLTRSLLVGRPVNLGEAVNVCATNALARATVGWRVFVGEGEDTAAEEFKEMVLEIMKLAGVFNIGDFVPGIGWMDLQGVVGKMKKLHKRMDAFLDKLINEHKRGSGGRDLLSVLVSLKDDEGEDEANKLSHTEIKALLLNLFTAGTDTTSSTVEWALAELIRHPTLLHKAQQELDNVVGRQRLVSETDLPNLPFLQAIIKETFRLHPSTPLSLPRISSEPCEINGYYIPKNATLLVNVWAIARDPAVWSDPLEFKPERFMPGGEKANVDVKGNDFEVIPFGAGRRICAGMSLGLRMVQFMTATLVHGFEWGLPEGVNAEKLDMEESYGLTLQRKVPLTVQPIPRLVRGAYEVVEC
T3 sequence (Q9SUM3 whole entry partner, the tested form may be a part): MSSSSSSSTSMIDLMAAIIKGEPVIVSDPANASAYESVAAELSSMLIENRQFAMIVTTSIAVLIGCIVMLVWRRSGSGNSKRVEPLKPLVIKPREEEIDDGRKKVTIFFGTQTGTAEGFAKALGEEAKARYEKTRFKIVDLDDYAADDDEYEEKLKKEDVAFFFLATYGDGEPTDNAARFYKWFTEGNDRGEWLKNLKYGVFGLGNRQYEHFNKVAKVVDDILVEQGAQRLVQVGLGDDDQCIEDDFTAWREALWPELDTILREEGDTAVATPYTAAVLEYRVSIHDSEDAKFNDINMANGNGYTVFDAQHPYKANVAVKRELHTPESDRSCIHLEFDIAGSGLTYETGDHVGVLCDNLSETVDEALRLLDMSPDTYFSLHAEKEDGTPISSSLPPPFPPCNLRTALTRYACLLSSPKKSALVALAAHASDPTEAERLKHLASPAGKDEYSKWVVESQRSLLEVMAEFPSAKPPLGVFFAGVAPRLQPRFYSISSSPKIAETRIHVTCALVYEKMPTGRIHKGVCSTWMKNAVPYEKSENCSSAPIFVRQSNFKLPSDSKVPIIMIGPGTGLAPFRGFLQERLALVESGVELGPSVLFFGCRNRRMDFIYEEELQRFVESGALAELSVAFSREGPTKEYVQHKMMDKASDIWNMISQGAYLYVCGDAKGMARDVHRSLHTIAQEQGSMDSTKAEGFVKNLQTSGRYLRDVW

T1 sequence (Q6VMV8 whole entry S142A): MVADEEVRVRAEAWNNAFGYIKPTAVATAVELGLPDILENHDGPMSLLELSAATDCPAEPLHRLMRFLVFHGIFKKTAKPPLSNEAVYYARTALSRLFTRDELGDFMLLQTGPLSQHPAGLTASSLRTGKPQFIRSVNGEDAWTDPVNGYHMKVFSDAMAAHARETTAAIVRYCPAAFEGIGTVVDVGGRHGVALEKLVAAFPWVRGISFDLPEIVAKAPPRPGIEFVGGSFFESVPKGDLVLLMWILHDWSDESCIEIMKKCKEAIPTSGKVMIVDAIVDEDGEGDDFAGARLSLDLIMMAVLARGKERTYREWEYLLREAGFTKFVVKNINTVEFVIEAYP
T2 sequence (Q6VMV8 whole entry F133A): as the sequence (Q6VMV8 whole entry S142A) above, with F133A, A142S counted along it

| SMILES | whole-cell conversion, HPLC [1] | whole-cell conversion, HPLC [2] | whole-cell conversion, HPLC [3] |
| --- | --- | --- | --- |
| O=C1C[C@@H](c2ccc(O)c(O)c2)Oc2cc(O)cc(O)c21 [(2S)-eriodictyol] | three mutants (F115A, F133A, and S142A), which displayed significantly higher conversion rates | three mutants (F115A, F133A, and S142A), which displayed significantly higher conversion rates | – |
| O=C1C[C@@H](c2ccc(O)cc2)Oc2cc(O)cc(O)c21 [(2S)-naringenin] | – | – | the one harboring trThF3′H and CPR exhibited the highest (2S)-eriodictyol production |
